This is an account of results in patent US20090111821A1, “AMINO 1,2,4-TRIAZOLE DERIVATIVES AS MODULATORS OF MGLUR5” (AstraZeneca AB, priority 2007, published 2009).

pIC50: −log10 of the molar value. Some results are limits rather than exact numbers.

A short description of data set [1]: Determination of brain to plasma ratio in rat. It counts as in vivo. The note with it: brain and plasma, female Sprague Dawley rats, read-out: Brain/Plasma Ratio of compound in Rat. Here is the method: Brain to plasma ratios are estimated in female Sprague Dawley rats. The compound is dissolved in water or another appropriate vehicle. For determination of brain to plasma ratio the compound is administrated as a subcutaneous, or an intravenous bolus injection, or an intravenous infusion, or an oral administration. At a predetermined time point after the administration a blood sample is taken with cardiac puncture. The rat is terminated by cutting the heart open, and the brain is immediately retained. The blood samples are collected in heparinized tubes and centrifuged within 30 minutes, in order to separate the plasma from the blood cells. The plasma is transferred to 96-well plates and stored at −20° C. until analysis. The brains are divided in half, and each half is placed in a pre-tarred tube and stored at −20° C. until analysis. Prior to the analysis, the brain samples are thawed and 3 mL/g brain tissue of distilled water is added to the tubes. The brain samples are sonicated in an ice bath until the samples are homogenized. Both brain and plasma samples are precipitated with acetonitrile. After centrifugation, the supernatant is diluted with 0.2% formic acid. Analysis is performed on a short reversed-phase HPLC column with rapid gradient elution and MSMS detection using a triple quadrupole instrument with electrospray ionisation and Selected Reaction Monitoring (SRM) acquisition. Liquid-liquid extraction may be used as an alternative sample clean-up. The samples are extracted, by shaking, to an organic solvent after addition of a suitable buffer. An aliquot of the organic layer is transferred to a new vial and evaporated to dryness under a stream of nitrogen. After reconstitution of the residuals the samples are ready for injection onto the HPLC column.

Another data set has as its target T1, human mGluR5d (Homo sapiens, UniProt P41594).
T1 construct: expressed in transfected cells; The cells are kept under hygromycin B and Zeocin selection; The separate IP3 assay names GHEK cells stably expressing human mGluR5d
In words: FLIPR assay, mobilization of intracellular calcium in cells expressing human mGluR5d. To be noted: antagonism of agonist response, read-out: FLIPR hmGluR5d. In kind it is cell-based. From the text: Functional Assessment of mGluR5 Antagonism in Cell Lines Expressing mGluR5D
The properties of the compounds of the invention can be analyzed using standard assays for pharmacological activity. Examples of glutamate receptor assays are well known in the art as described in for example Aramori et al., Neuron 8:757 (1992), Tanabe et al. Neuron 8:169 (1992), Miller et al., J. Neuroscience 15: 6103 (1995), Balazs, et al., J. Neurochemistry 69:151 (1997). The methodology described in these publications is incorporated herein by reference. Conveniently, the compounds of the invention can be studied by means of an assay (FLIPR) that measures the mobilization of intracellular calcium, [Ca^2+]i in cells expressing mGluR5 or another assay (IP3) that measures inositol phosphate turnover.
Cells expressing human mGluR5d as described in WO97/05252 cultured in a mixture of high glucose DMEM with Glutamax (31966-021)(500 mL), 10% dialyzed fetal bovine serum (Hyclone #SH30079.03) (56 mL), 200 μg/mL Hygromycin B (Invitrogen 45-0430, 50 mg/mL) (2.2 mL), 200 μg/mL Zeocin (Invitrogen #R250-01; 100 mg/mL) (1.1 mL) are seeded at a density of 100,000 cells per well on collagen coated clear bottom 96-well plates with black sides and cells were allowed to adhere over night before experiments. All assays are done in a buffer containing 146 mM NaCl, 5 mM KCl, 1 mM MgCl2, 1 mM CaCl2, 20 mM HEPES, 1 mg/mL glucose and 1 mg/mL BSA Fraction IV (pH 7.4). Cell cultures in the 96-well plates are loaded for 60 minutes in the above mentioned buffer containing 6 μM of the acetoxymethyl ester form of the fluorescent calcium indicator fluo-3 (Molecular Probes, Eugene, Oreg.) in 0.025% pluronic acid (a proprietary, non-ionic surfactant polyol—CAS Number 9003-11-6). Following the loading period the fluo-3 buffer is removed and replaced with fresh assay buffer. FLIPR experiments are done using a laser setting of 0.700 W and a 0.4 second CCD camera shutter speed with excitation and emission wavelengths of 488 nm and 562 nm, respectively. Each experiment is initiated with 160 μl of buffer present in each well of the cell plate. A 40 μl addition from the antagonist plate was followed by a 50 μL addition from the agonist plate. A 30 minutes, in dark at 25° C., interval separates the antagonist and agonist additions. The fluorescence signal is sampled 50 times at 1-second intervals followed by 3 samples at 5-second intervals immediately after each of the two additions. Responses are measured as the difference between the peak heights of the response to agonist, less the background fluorescence within the sample period. IC50 determinations are made using a […] least squares fitting program.
For orientation: A change in cytosolic calcium serves as a functional read-out for many receptors and channels.

T1 sequence (P41594 21-942 isoform P41594-3 limits assumed): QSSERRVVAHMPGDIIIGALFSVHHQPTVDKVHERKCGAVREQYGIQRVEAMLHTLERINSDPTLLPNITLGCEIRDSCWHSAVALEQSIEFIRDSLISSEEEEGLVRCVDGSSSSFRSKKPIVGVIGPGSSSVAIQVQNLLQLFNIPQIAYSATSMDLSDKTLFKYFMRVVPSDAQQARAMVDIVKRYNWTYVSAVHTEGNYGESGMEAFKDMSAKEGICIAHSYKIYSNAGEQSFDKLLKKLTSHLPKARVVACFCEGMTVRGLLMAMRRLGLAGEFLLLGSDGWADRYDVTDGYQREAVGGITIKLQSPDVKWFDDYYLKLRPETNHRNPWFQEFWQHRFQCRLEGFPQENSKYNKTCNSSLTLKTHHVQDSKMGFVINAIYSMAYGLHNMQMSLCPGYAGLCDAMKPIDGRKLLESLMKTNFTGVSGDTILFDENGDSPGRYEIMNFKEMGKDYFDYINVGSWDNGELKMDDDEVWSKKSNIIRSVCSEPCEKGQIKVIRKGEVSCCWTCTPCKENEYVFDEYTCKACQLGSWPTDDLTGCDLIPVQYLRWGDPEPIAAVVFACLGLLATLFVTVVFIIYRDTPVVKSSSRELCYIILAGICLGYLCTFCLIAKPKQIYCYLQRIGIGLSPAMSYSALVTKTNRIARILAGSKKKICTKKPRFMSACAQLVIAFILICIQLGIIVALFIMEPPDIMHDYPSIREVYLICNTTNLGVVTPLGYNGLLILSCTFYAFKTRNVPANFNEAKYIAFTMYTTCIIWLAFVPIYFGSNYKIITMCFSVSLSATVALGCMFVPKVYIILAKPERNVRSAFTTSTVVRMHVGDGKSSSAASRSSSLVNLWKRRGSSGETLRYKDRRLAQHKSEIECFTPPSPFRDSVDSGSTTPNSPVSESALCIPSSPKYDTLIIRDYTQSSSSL

As for `CC(c1cc(-c2cccc(Cl)c2)on1)N(C)c1nnc(-c2ccn(C)c(=O)c2)n1C` (single isomer, unassigned; (-)) [(−) 5.1], the Kp in data set [1] was below 0.01. The pIC50 at human mGluR5d is 7.52.

Regarding `CC(c1cc(-c2cccc(Cl)c2)on1)N(c1nnc(-c2cn[nH]c(=O)c2)n1C)C1CC1` (single isomer, unassigned; (-)) [(−) 5.2], the Kp in data set [1] was below 0.01. Moreover, on human mGluR5d, the pIC50 is 6.95.

As to `Cn1c(-c2cn[nH]c(=O)c2)nnc1N(Cc1cc(-c2cccc(Cl)c2)on1)C1CC1` [Example 4.1, 5-{5-[{[5-(3-Chlorophenyl)isoxazol-3-yl]methyl}(cyclopropyl)amino]-4-methyl-4H-1,2,4-triazol-3-yl}pyridazin-3(2H)-one], in data set [1], the Kp is below 0.01. Moreover, the pIC50 on human mGluR5d is 7.39.

Take `CCN(Cc1cc(-c2cccc(Cl)c2)on1)c1nnc(-c2cc[nH]c(=O)c2)n1C` [Example 4.2, 4-{5-[{[5-(3-Chlorophenyl)-isoxazol-3-yl]methyl}(ethyl)amino]-4-methyl-4H-1,2,4-triazol-3-yl}pyridin-2(1H)-one]: the Kp in data set [1] is 0.02. Besides, at human mGluR5d, the pIC50 was 7.51.

With `CCN(Cc1cc(-c2cccc(Cl)c2)on1)c1nnc(-c2cn[nH]c(=O)c2)n1C` [Example 4.3, 5-{5-[{[5-(3-Chlorophenyl)-isoxazol-3-yl]methyl}(ethyl)-amino]-4-methyl-4H-1,2,4-triazol-3-yl}pyridazin-3(2H)-one], the Kp in data set [1] came out at 0.015. The pIC50 at human mGluR5d is 7.68.

Regarding `CCn1c(-c2cc(=O)[nH]cn2)nnc1N(C)Cc1cc(-c2cccc(Cl)c2)on1` [Example 4.4, 6-{5-[{[5-(3-chlorophenyl)-isoxazol-3-yl]methyl}(methyl)amino]-4-ethyl-4H-1,2,4-triazol-3-yl}pyrimidin-4(3H)-one], the Kp in data set [1] was below 0.01. Besides, the pIC50 on human mGluR5d was 7.89.

`CN(Cc1cc(-c2cccc(Cl)c2)on1)c1nnc(-c2cc(=O)[nH]cn2)n1C1CC1` [Example 4.5, 6-{5-[{[5-(3-chlorophenyl)isoxazol-3-yl]methyl}(methyl)amino]-4-cyclopropyl-4H-1,2,4-triazol-3-yl}pyrimidin-4(3H)-one]: the Kp in data set [1] was below 0.01. Besides, at human mGluR5d, the pIC50 was 7.11.

As for `CCN(Cc1cc(-c2cccc(C)c2)on1)c1nnc(-c2cn[nH]c(=O)c2)n1C` [Example 4.6, 5-[5-(Ethyl{[5-(3-methylphenyl)isoxazol-3-yl]-methyl}amino)-4-methyl-4H-1,2,4-triazol-3-yl]pyridazin-3(2H)-one], the Kp in data set [1] was 0.01. Also, on human mGluR5d, the pIC50 is 7.35.

Take `CCn1c(-c2cc(=O)[nH]cn2)nnc1N(C)Cc1cc(-c2cccc(C)c2)on1` [Example 4.7, 6-[4-Ethyl-5-(methyl{[5-(3-methylphenyl)isoxazol-3-yl]methyl}amino)-4H-1,2,4-triazol-3-yl]pyrimidin-4(3H)-one]: the Kp in data set [1] was below 0.015. Also, the pIC50 on human mGluR5d is 7.28.

For the compound `CCN(Cc1cc(-c2cccc(C)c2)on1)c1nnc(-c2ccn(C)c(=O)c2)n1C` [Example 4.8, 4-[5-(Ethyl{[5-(3-methylphenyl)isoxazol-3-yl]methyl}amino)-4-methyl-4H-1,2,4-triazol-3-yl]-1-methylpyridin-2(1H)-one], the Kp in data set [1] was determined as 0.22. The pIC50 on human mGluR5d was 6.95.

Consider `CCN(Cc1cc(-c2cccc(C)c2)on1)c1nnc(-c2cc[nH]c(=O)c2)n1C` [Example 4.9, 4-[5-(Ethyl{[5-(3-methylphenyl)isoxazol-3-yl]methyl}amino)-4-methyl-4H-1,2,4-triazol-3-yl]pyridin-2(1H)-one], for which the Kp in data set [1] came out at 0.035. Also, the pIC50 on human mGluR5d is 7.28.

Consider `CCN(Cc1cc(-c2cccc(Cl)c2)on1)c1nnc(-c2ccn(C)c(=O)c2)n1C` [Example 4.10, 4-{5-[{[5-(3-Chlorophenyl)-isoxazol-3-yl]methyl}(ethyl)amino]-4-methyl-4H-1,2,4-triazol-3-yl}-1-methylpyridin-2(1H)-one], for which, in data set [1], the Kp was below 0.01. Further, the pIC50 at human mGluR5d is 7.19.

Consider `Cc1cccc(-c2cc([C@H](C)N(C)c3nnc(-c4cn[nH]c(=O)c4)n3C)no2)c1` [Example 4.11, (−)-5-[4-Methyl-5-(methyl-{(1S)-1-[5-(3-methylphenyl)isoxazol-3-yl]ethyl}amino)-4H-1,2,4-triazol-3-yl]pyridazin-3(2H)-one], for which the Kp in data set [1] was below 0.01. For the same compound, the pIC50 at human mGluR5d is 7.37.

In the case of `Cc1cccc(-c2cc([C@H](C)N(C)c3nnc(-c4cc[nH]c(=O)c4)n3C)no2)c1` [Example 4.12, (−)-4-[4-Methyl-5-(methyl-{(1S)-1-[5-(3-methylphenyl)-isoxazol-3-yl]ethyl}amino)-4H-1,2,4-triazol-3-yl]pyridin-2(1H)-one], the Kp in data set [1] is below 0.01. The pIC50 on human mGluR5d is 7.15.

On to `CN(Cc1cc(-c2cccc(Cl)c2)on1)c1nnc(-c2ccnnc2)n1C` [Example 8.1, N-{[5-(3-Chlorophenyl)isoxazol-3-yl]methyl}-N,4-dimethyl-5-pyridazin-4-yl-4H-1,2,4-triazol-3-amine], for which, in data set [1], the Kp is 0.03. The pIC50 at human mGluR5d is 8.00.

On to `CN(Cc1cc(-c2cccc(Cl)c2)on1)c1nnc(-c2cncnc2)n1C` [Example 8.2, N-{[5-(3-Chlorophenyl)isoxazol-3-yl]methyl}-N,4-dimethyl-5-pyrimidin-5-yl-4H-1,2,4-triazol-3-amine], for which the Kp in data set [1] stood at 0.16. The pIC50 on human mGluR5d was 7.70.

Consider `Cc1cccc(-c2cc([C@H](C)N(C)c3nnc(-c4ccn(C)c(=O)c4)n3C)no2)c1` [Example 8.3, 1-Methyl-4-[4-methyl-5-(methyl-{(1S)-1-[5-(3-methylphenyl)-isoxazol-3-yl]ethyl}amino)-4H-1,2,4-triazol-3-yl]pyridin-2(1H)-one], for which, in data set [1], the Kp was below 0.01. Besides, the pIC50 on human mGluR5d was 6.93.

For `CCN(Cc1noc(-c2cccc(Cl)c2)n1)c1nnc(-c2cn[nH]c(=O)c2)n1C` [Example 8.4, 5-{5-[{[5-(3-Chlorophenyl)-1,2,4-oxadiazol-3-yl]methyl}(ethyl)amino]-4-methyl-4H-1,2,4-triazol-3-yl}pyridazin-3(2H)-one], in data set [1], the Kp is below 0.01. Also, the pIC50 on human mGluR5d is 7.37.

As to `CCN(Cc1noc(-c2cccc(C)c2)n1)c1nnc(-c2cn[nH]c(=O)c2)n1C` [Example 8.5, 5-[5-(Ethyl{[5-(3-methylphenyl)-1,2,4-oxadiazol-3-yl]methyl}amino)-4-methyl-4H-1,2,4-triazol-3-yl]pyridazin-3(2H)-one], the Kp in data set [1] was below 0.01. Besides, the pIC50 on human mGluR5d was 7.28.

Turning to `CCN(Cc1noc(-c2cccc(C)c2)n1)c1nnc(-c2ccn(C)c(=O)c2)n1C` [Example 8.6, 4-[5-(Ethyl{[5-(3-methylphenyl)-1,2,4-oxadiazol-3-yl]methyl}amino)-4-methyl-4H-1,2,4-triazol-3-yl]-1-methylpyridin-2(1H)-one], in data set [1], the Kp was below 0.01. The pIC50 at human mGluR5d is 7.12.
